pIC50, pKd: −log10 of the molar value.
Legend:
[1] = tested on: HER2 expression in BT-474 human breast cancer cells; assay: In-Cell Western assay (ICW) for HER2 expression in BT-474 cells; type: cell-based; details: BT-474 cells, 24 h incubation, 3-fold serial dilutions, HER2 signal normalized to DRAQ5; read-out: HER2 (ICW)
Method: The HDCs as described herein were used in various experiments to determine their activity and properties, such as binding affinity and stability in blood. An in-Cell Western assay (ICW) for HER2 expression was carried out in BT-474 human breast cancer cells. BT-474 cells were seeded in 96-well plates at a density of 20,000 cells per well. Twenty-four hours after plating, cells were dosed with graded concentrations of HDCs using 3-fold serial dilutions and incubated for 24 h. Growth media containing drug was aspirated off. Cells were then fixed in 4% paraformaldehyde for 20 min and washed three times in 0.1% Triton X-100. After blocking for 1.5 h in Odyssey Blocking Buffer (LI-COR, Lincoln, Nebr., USA), cells were incubated with primary HER2 antibody overnight at 4° C. Wells were washed three times with 0.1% Tween-20 and incubated in secondary antibody (LI-COR, Lincoln, Nebr., USA) and DRAQ5 (CST, Beverly, Mass., USA) for 1 h. Following 3 final washes with 0.1% Tween-20, antibody-antigen complexes were visualized using the Odyssey system. For quantification, HER2 signal was normalized to DRAQ5 flourescent probe.

[2] = Metabolic stability in mouse whole blood (LC-MS/MS); type: in vitro ADME; details: mouse whole blood, 10 μM, percent of test compound remaining after 1 hour, average of duplicate
Method: Metabolic stability of various HDCs was tested in mouse blood. All compounds were tested at a concentration of 10 μM. The time dependent disappearance of test compound in mouse whole blood, and the release of the compound qualitatively as determined by liquid chromatography tandem mass spectrometry (LC-MS/MS), was tested at time points of 15 minutes, 30 minutes, 45 minutes and 1 hour. All compounds were tested in duplicate, and the average was taken. The results in Table 2 show the percent of test compound remaining after 1 hour.

Hsp90 = assay: Binding affinity (Kd) by standard methods
Method: Finally, binding affinity (Kd) was determined for various HDCs using standard methods.

SMILES: CCNC(=O)c1nnc(-c2cc(C(C)C)c(O)cc2O)n1-c1ccc(CN2CCC(C(=O)N3CCC(C(=O)OC[C@@H](NC(=O)c4cc(-c5cc(NC(C)C)ncc5Cl)c[nH]4)c4cccc(Cl)c4)CC3)CC2)c(F)c1 [SDC-TRAP-0510, (S)-2-(4-(5-chloro-2-(isopropylamino)pyridin-4-yl)-1H-pyrrole-2-carboxamido)-2-(3-chlorophenyl)ethyl 1-(1-(4-(3-(2,4-dihydroxy-5-isopropylphenyl)-5-(ethylcarbamoyl)-4H-1,2,4-triazol-4-yl)-2-fluorobenzyl)piperidine-4-carbonyl)piperidine-4-carboxylate]
- pIC50 [1]: 7.04
- Mouse blood stability 1 h (% remaining) [2]: 77.1%
- pKd (Hsp90): 8.21

SMILES: CC(C)Nc1cc(-c2c[nH]c(C(=O)N[C@H](COC(=O)C3CCN(C(=O)C4CCN(Cc5ccc(-n6c(O)nnc6-c6cc(C(C)C)c(O)cc6O)cc5F)CC4)CC3)c3cccc(Cl)c3)c2)c(Cl)cn1 [SDC-TRAP-0511, (S)-2-(4-(5-chloro-2-(isopropylamino)pyridin-4-yl)-1H-pyrrole-2-carboxamido)-2-(3-chlorophenyl)ethyl 1-(1-(4-(3-(2,4-dihydroxy-5-isopropylphenyl)-5-hydroxy-4H-1,2,4-triazol-4-yl)-2-fluorobenzyl)piperidine-4-carbonyl)piperidine-4-carboxylate]
- pIC50 [1]: 6.33
- Mouse blood stability 1 h (% remaining) [2]: 30.8%
- pKd (Hsp90): 8.54

SMILES: CCNC(=O)c1nnc(-c2cc(C(C)C)c(O)cc2O)n1-c1ccc(CN2CCC(C(=O)N3CCC(CC(=O)OC[C@@H](NC(=O)c4cc(-c5cc(NC(C)C)ncc5Cl)c[nH]4)c4cccc(Cl)c4)CC3)CC2)c(F)c1 [SDC-TRAP-0512, (S)-2-(4-(5-chloro-2-(isopropylamino)pyridin-4-yl)-1H-pyrrole-2-carboxamido)-2-(3-chlorophenyl)ethyl 2-(1-(1-(4-(3-(2,4-dihydroxy-5-isopropylphenyl)-5-(ethylcarbamoyl)-4H-1,2,4-triazol-4-yl)-2-fluorobenzyl)piperidine-4-carbonyl)piperidin-4-yl)acetate]
- pIC50 [1]: 7.22
- Mouse blood stability 1 h (% remaining) [2]: 100%

SMILES: CC(C)Nc1cc(-c2c[nH]c(C(=O)N[C@H](COC(=O)CC3CCN(C(=O)C4CCN(Cc5ccc(-n6c(O)nnc6-c6cc(C(C)C)c(O)cc6O)cc5F)CC4)CC3)c3cccc(Cl)c3)c2)c(Cl)cn1 [SDC-TRAP-0513, (S)-2-(4-(5-chloro-2-(isopropylamino)pyridin-4-yl)-1H-pyrrole-2-carboxamido)-2-(3-chlorophenyl)ethyl 2-(1-(1-(4-(3-(2,4-dihydroxy-5-isopropylphenyl)-5-hydroxy-4H-1,2,4-triazol-4-yl)-2-fluorobenzyl)piperidine-4-carbonyl)piperidin-4-yl)acetate]
- pIC50 [1]: 6.28
- Mouse blood stability 1 h (% remaining) [2]: 48.2%
- pKd (Hsp90): 9.06

SMILES: CCNC(=O)c1nnc(-c2cc(C(C)C)c(O)cc2O)n1-c1ccc(CN2CCC(C(=O)NC(C)(C)C(=O)OC[C@@H](NC(=O)c3cc(-c4cc(NC(C)C)ncc4Cl)c[nH]3)c3cccc(Cl)c3)CC2)c(F)c1 [SDC-TRAP-0514, (S)-2-(4-(5-chloro-2-(isopropylamino)pyridin-4-yl)-1H-pyrrole-2-carboxamido)-2-(3-chlorophenyl)ethyl 2-(1-(4-(3-(2,4-dihydroxy-5-isopropylphenyl)-5-(ethylcarbamoyl)-4H-1,2,4-triazol-4-yl)-2-fluorobenzyl)piperidine-4-carboxamido)-2-methylpropanoate]
- pIC50 [1]: 6.46
- Mouse blood stability 1 h (% remaining) [2]: 105%

SMILES: CCNC(=O)c1nnc(-c2cc(C(C)C)c(O)cc2O)n1-c1ccc(CN2CCC(C(=O)N3CC(C(=O)OC[C@@H](NC(=O)c4cc(-c5cc(NC(C)C)ncc5Cl)c[nH]4)c4cccc(Cl)c4)C3)CC2)c(F)c1 [SDC-TRAP-0515, (S)-2-(4-(5-chloro-2-(isopropylamino)pyridin-4-yl)-1H-pyrrole-2-carboxamido)-2-(3-chlorophenyl)ethyl 1-(1-(4-(3-(2,4-dihydroxy-5-isopropylphenyl)-5-(ethylcarbamoyl)-4H-1,2,4-triazol-4-yl)-2-fluorobenzyl)piperidine-4-carbonyl)azetidine-3-carboxylate]
- pIC50 [1]: 6.74
- Mouse blood stability 1 h (% remaining) [2]: 30%
- pKd (Hsp90): 9.01

SMILES: CCNC(=O)c1nnc(-c2cc(C(C)C)c(O)cc2O)n1-c1ccc(CN2CCC(C(=O)N3CC[C@H](C(=O)OC[C@@H](NC(=O)c4cc(-c5cc(NC(C)C)ncc5Cl)c[nH]4)c4cccc(Cl)c4)C3)CC2)c(F)c1 [SDC-TRAP-0516, (S)-(S)-2-(4-(5-chloro-2-(isopropylamino)pyridin-4-yl)-1H-pyrrole-2-carboxamido)-2-(3-chlorophenyl)ethyl 1-(1-(4-(3-(2,4-dihydroxy-5-isopropylphenyl)-5-(ethylcarbamoyl)-4H-1,2,4-triazol-4-yl)-2-fluorobenzyl)piperidine-4-carbonyl)pyrrolidine-3-carboxylate]
- pIC50 [1]: 6.91
- Mouse blood stability 1 h (% remaining) [2]: 55.5%
- pKd (Hsp90): 8.89

SMILES: CCNC(=O)c1nnc(-c2cc(C(C)C)c(O)cc2O)n1-c1ccc(C(=O)N(C)[C@@H](C(=O)N[C@H](C(=O)N(C)C([C@@H](C)CC)[C@@H](CC(=O)N2CCC[C@@H]2[C@@H](OC)[C@@H](C)C(=O)N[C@@H](C)[C@H](O)c2ccccc2)OC)C(C)C)C(C)C)cc1 (stereo partly drawn) [SDC-TRAP-0536, 5-(2,4-dihydroxy-5-isopropylphenyl)-N-ethyl-4-(4-(((2R)-1-(((2S)-1-(((3R,5S)-1-((R)-2-((1S,2R)-3-(((1R,2S)-1-hydroxy-1-phenylpropan-2-yl)amino)-1-methoxy-2-methyl-3-oxopropyl)pyrrolidin-1-yl)-3-methoxy-5-methyl-1-oxoheptan-4-yl)(methyl)amino)-3-methyl-1-oxobutan-2-yl)amino)-3-methyl-1-oxobutan-2-yl)(methyl)carbamoyl)phenyl)-4H-1,2,4-triazole-3-carboxamide]
- pKd (Hsp90): 9.11

From patent publication US20190060473A1, “HSP90 INHIBITOR DRUG CONJUGATES” (priority 2016, published 2019)
